Assay results published in ChEMBL document CHEMBL3885881, “DrugMatrix”.

Organism: Rattus norvegicus
Experiment: DrugMatrix - Regimen: Daily Repeat
Format: toxicity, organism-based, Sprague-Dawley
Parameters: regimen Daily Repeat, gender Male, age 6-8 weeks
Details: in vivo, iv, vehicle 100 % SALINE; for ABSOLUTE BASOPHIL / ABSOLUTE EOSINOPHIL / ABSOLUTE LYMPHOCYTE / ABSOLUTE MONOCYTE / ABSOLUTE SEGMENTED NEUTROPHIL / BASOPHIL / EOSINOPHIL / ERYTHROCYTE COUNT / HEMATOCRIT / HEMOGLOBIN / LEUKOCYTE COUNT / LYMPHOCYTE / MEAN CORPUSCULAR HEMOGLOBIN / MEAN CORPUSCULAR HEMOGLOBIN CONCENTRATION / MEAN CORPUSCULAR VOLUME / MONOCYTE / NEUTROPHIL / NUCLEATED RED BLOOD CELLS / PLATELET COUNT: tissue Blood
[1] = 0 mg/kg, 72 h, dose level Control, time 3 day
[2] = 0 mg/kg, 72 h, tissue Plasma, dose level Control, time 3 day
[3] = 0 mg/kg, 120 h, dose level Control, time 5 day
[4] = 0 mg/kg, 120 h, tissue Plasma, dose level Control, time 5 day
[5] = […], 72 h, dose 0.56 mg/Kg, dose level High, time 3 day
[6] = […], 72 h, tissue Plasma, dose 0.56 mg/Kg, dose level High, time 3 day
[7] = […], 120 h, dose 0.56 mg/Kg, dose level High, time 5 day
[8] = […], 120 h, tissue Plasma, dose 0.56 mg/Kg, dose level High, time 5 day

INSULIN HUMAN
ABSOLUTE BASOPHIL [1]: 0 CELLS/uL
ABSOLUTE EOSINOPHIL [1]: 46.17 CELLS/uL
ABSOLUTE LYMPHOCYTE [1]: 9089 CELLS/uL
ABSOLUTE MONOCYTE [1]: 242 CELLS/uL
ABSOLUTE SEGMENTED NEUTROPHIL [1]: 856.17 CELLS/uL
BASOPHIL [1]: 0%
EOSINOPHIL [1]: 0.5%
ERYTHROCYTE COUNT [1]: 5.1 x10E6/uL
HEMATOCRIT [1]: 32.5%
HEMOGLOBIN [1]: 12.35 G/DL
LEUKOCYTE COUNT [1]: 10.23 x10E3/uL
LYMPHOCYTE [1]: 88.5%
MEAN CORPUSCULAR HEMOGLOBIN [1]: 24.18 pg
MEAN CORPUSCULAR HEMOGLOBIN CONCENTRATION [1]: 38 G/DL
MEAN CORPUSCULAR VOLUME [1]: 63.62 fL
MONOCYTE [1]: 2.5%
NEUTROPHIL [1]: 8.5%
NUCLEATED RED BLOOD CELLS [1]: 0.17 /100WBC
PLATELET COUNT [1]: 1038.67 x10E3/uL
ALANINE AMINOTRANSFERASE [2]: 51.33 u/L
ALBUMIN [2]: 3.9 G/DL
ALKALINE PHOSPHATASE [2]: 409.33 u/L
ASPARTATE AMINOTRANSFERASE [2]: 91.67 u/L
CHLORIDE [2]: 97.83 MEQ/L
CHOLESTEROL [2]: 79.33 mg/dL
CREATINE PHOSPHOKINASE [2]: 628.67 u/L
CREATININE [2]: 0.21 mg/dL
LACTATE DEHYDROGENASE [2]: 120.33 u/L
PHOSPHORUS [2]: 10.48 mg/dL
POTASSIUM [2]: 5.83 MEQ/L
TOTAL BILIRUBIN [2]: 0.2 mg/dL
TOTAL PROTEIN [2]: 6.15 G/DL
URIC ACID [2]: 0.45 mg/dL
ABSOLUTE BASOPHIL [3]: 0 CELLS/uL
ABSOLUTE EOSINOPHIL [3]: 12.17 CELLS/uL
ABSOLUTE LYMPHOCYTE [3]: 10388 CELLS/uL
ABSOLUTE MONOCYTE [3]: 140.17 CELLS/uL
ABSOLUTE SEGMENTED NEUTROPHIL [3]: 1576.33 CELLS/uL
BASOPHIL [3]: 0%
EOSINOPHIL [3]: 0.17%
ERYTHROCYTE COUNT [3]: 5.71 x10E6/uL
HEMATOCRIT [3]: 35.57%
LEUKOCYTE COUNT [3]: 12.12 x10E3/uL
LYMPHOCYTE [3]: 85.83%
MEAN CORPUSCULAR HEMOGLOBIN [3]: 23.53 pg
MEAN CORPUSCULAR HEMOGLOBIN CONCENTRATION [3]: 37.73 G/DL
MONOCYTE [3]: 1%
NEUTROPHIL [3]: 13%
NUCLEATED RED BLOOD CELLS [3]: 0.33 /100WBC
PLATELET COUNT [3]: 1347.67 x10E3/uL
ALANINE AMINOTRANSFERASE [4]: 47.83 u/L
ALKALINE PHOSPHATASE [4]: 380 u/L
ASPARTATE AMINOTRANSFERASE [4]: 81.17 u/L
BLOOD UREA NITROGEN [4]: 14.67 mg/dL
CARBON DIOXIDE [4]: 36.17 mmol/L
CHLORIDE [4]: 98.17 MEQ/L
CHOLESTEROL [4]: 69.33 mg/dL
CREATINE PHOSPHOKINASE [4]: 547.17 u/L
CREATININE [4]: 0.28 mg/dL
GLUCOSE [4]: 140.5 mg/dL
LACTATE DEHYDROGENASE [4]: 153.83 u/L
LIPASE [4]: 7.83 u/L
POTASSIUM [4]: 5.86 MEQ/L
TOTAL BILIRUBIN [4]: 0.17 mg/dL
TOTAL PROTEIN [4]: 6.33 G/DL
URIC ACID [4]: 0.68 mg/dL
ABSOLUTE BASOPHIL [5]: 0 CELLS/uL
ABSOLUTE EOSINOPHIL [5]: 0 CELLS/uL
ABSOLUTE LYMPHOCYTE [5]: 9557.33 CELLS/uL
ABSOLUTE MONOCYTE [5]: 233.33 CELLS/uL
ABSOLUTE SEGMENTED NEUTROPHIL [5]: 942.67 CELLS/uL
BASOPHIL [5]: 0%
EOSINOPHIL [5]: 0%
ERYTHROCYTE COUNT [5]: 5.18 x10E6/uL
HEMATOCRIT [5]: 33.13%
HEMOGLOBIN [5]: 12.73 G/DL
LEUKOCYTE COUNT [5]: 10.73 x10E3/uL
LYMPHOCYTE [5]: 89.33%
MEAN CORPUSCULAR HEMOGLOBIN [5]: 24.6 pg
MEAN CORPUSCULAR HEMOGLOBIN CONCENTRATION [5]: 38.43 G/DL
MEAN CORPUSCULAR VOLUME [5]: 64 fL
MONOCYTE [5]: 2%
NUCLEATED RED BLOOD CELLS [5]: 0.33 /100WBC
PLATELET COUNT [5]: 1173.33 x10E3/uL
ALANINE AMINOTRANSFERASE [6]: 50.67 u/L
ALBUMIN [6]: 3.9 G/DL
ALKALINE PHOSPHATASE [6]: 425.67 u/L
ASPARTATE AMINOTRANSFERASE [6]: 87.67 u/L
BLOOD UREA NITROGEN [6]: 16 mg/dL
CARBON DIOXIDE [6]: 29.33 mmol/L
CHLORIDE [6]: 98 MEQ/L
CHOLESTEROL [6]: 73.33 mg/dL
CREATINE PHOSPHOKINASE [6]: 247.67 u/L
CREATININE [6]: 0.2 mg/dL
GLUCOSE [6]: 158.67 mg/dL
LACTATE DEHYDROGENASE [6]: 90.33 u/L
LIPASE [6]: 12 u/L
POTASSIUM [6]: 5.04 MEQ/L
SODIUM [6]: 140.73 MEQ/L
TOTAL BILIRUBIN [6]: 0.17 mg/dL
TOTAL PROTEIN [6]: 6.1 G/DL
URIC ACID [6]: 0.33 mg/dL
ABSOLUTE BASOPHIL [7]: 0 CELLS/uL
ABSOLUTE EOSINOPHIL [7]: 0 CELLS/uL
ABSOLUTE LYMPHOCYTE [7]: 9972 CELLS/uL
ABSOLUTE MONOCYTE [7]: 151.33 CELLS/uL
ABSOLUTE SEGMENTED NEUTROPHIL [7]: 1610 CELLS/uL
BASOPHIL [7]: 0%
EOSINOPHIL [7]: 0%
ERYTHROCYTE COUNT [7]: 5.32 x10E6/uL
HEMATOCRIT [7]: 33.67%
LEUKOCYTE COUNT [7]: 11.73 x10E3/uL
LYMPHOCYTE [7]: 85%
MEAN CORPUSCULAR HEMOGLOBIN [7]: 24.17 pg
MEAN CORPUSCULAR HEMOGLOBIN CONCENTRATION [7]: 38.23 G/DL
NEUTROPHIL [7]: 13.67%
NUCLEATED RED BLOOD CELLS [7]: 0.33 /100WBC
PLATELET COUNT [7]: 1293.67 x10E3/uL
ALANINE AMINOTRANSFERASE [8]: 53.33 u/L
ALKALINE PHOSPHATASE [8]: 426 u/L
ASPARTATE AMINOTRANSFERASE [8]: 73 u/L
BLOOD UREA NITROGEN [8]: 14.67 mg/dL
CARBON DIOXIDE [8]: 34.67 mmol/L
CHLORIDE [8]: 98 MEQ/L
CREATINE PHOSPHOKINASE [8]: 305 u/L
CREATININE [8]: 0.27 mg/dL
GLUCOSE [8]: 134.67 mg/dL
LACTATE DEHYDROGENASE [8]: 124.33 u/L
LIPASE [8]: 7.67 u/L
PHOSPHORUS [8]: 10.33 mg/dL
POTASSIUM [8]: 5.91 MEQ/L
TOTAL BILIRUBIN [8]: 0.2 mg/dL
TOTAL PROTEIN [8]: 6.23 G/DL
URIC ACID [8]: 0.6 mg/dL
